Measured values reported in PubChem BioAssay AID449767 (Vanderbilt High Throughput Screening Facility, 2010).
Active and inactive are the calls of the source. The rule behind the calls is not given here.

Target: Muscarinic acetylcholine receptor M4 (Rattus norvegicus) (UniProt P08485)
Assay: acetylcholine potency shift at rat M4, rM4 cells, calcium, ACh concentration-response fold shift (AID 449767)
Settings: acetylcholine CRC fold-shift, at 30 µM, active compounds read high

Chain of Muscarinic acetylcholine receptor M4 (Rattus norvegicus) (P08485 whole entry, looked up): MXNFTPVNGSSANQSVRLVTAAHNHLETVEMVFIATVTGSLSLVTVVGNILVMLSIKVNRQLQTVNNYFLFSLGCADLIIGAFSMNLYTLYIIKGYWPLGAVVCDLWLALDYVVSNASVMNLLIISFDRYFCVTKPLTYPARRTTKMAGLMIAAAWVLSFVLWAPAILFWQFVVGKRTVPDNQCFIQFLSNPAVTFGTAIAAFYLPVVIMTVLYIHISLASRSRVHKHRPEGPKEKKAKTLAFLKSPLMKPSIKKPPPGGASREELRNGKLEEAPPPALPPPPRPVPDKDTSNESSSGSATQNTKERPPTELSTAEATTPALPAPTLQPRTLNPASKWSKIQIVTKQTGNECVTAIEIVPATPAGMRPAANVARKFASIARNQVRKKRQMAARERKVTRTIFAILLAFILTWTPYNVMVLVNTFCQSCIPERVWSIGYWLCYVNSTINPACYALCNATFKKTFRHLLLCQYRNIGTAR

SMILES	fold shift
Cc1cc(OCCCN(C)C)nc2sc(C(=O)NCc3cc(F)ccc3F)c(N)c12	14
Cc1cc(OCCCN(C)C)nc2sc(C(=O)NC3COC3)c(N)c12	7
COc1ccc(CNC(=O)c2sc3nc(OCCN4CCCC4)cc(C)c3c2N)cc1	25
Cc1cc(OCc2ccncc2)nc2sc(C(=O)NCc3cccc(F)c3F)c(N)c12	36
Cc1cc(OCCN2CCOCC2)nc2sc(C(=O)NC3COC3)c(N)c12	40
Cc1cc(C)c2c(N)c(C(=O)NCc3ccc4c(c3)OCO4)sc2n1	40
COc1ccc(CNC(=O)c2sc3nc(OCCN4CCOCC4)cc(C)c3c2N)cc1	37
Cc1cc(OCc2ccccn2)nc2sc(C(=O)NCc3cccc(F)c3F)c(N)c12	28
Cc1cc(OCCN2CCOCC2)nc2sc(C(=O)NC(C)C)c(N)c12	36
COc1ccc(CNC(=O)c2sc3nc(OCc4cccnc4)cc(C)c3c2N)cc1	9
COc1ccc(CNC(=O)c2sc3nc(OCc4ccccn4)cc(C)c3c2N)cc1	4
Cc1cc(C)c2c(N)c(C(=O)NCc3ccccc3F)sc2n1	16
Cc1cc(C)c2c(N)c(C(=O)NCc3ccc(Cl)cc3)sc2n1	48
COc1ccc(CNC(=O)c2sc3nc(OCc4ccncc4)cc(C)c3c2N)cc1	50
COc1ccc(CNC(=O)c2sc3nc(C)cc(C)c3c2N)cc1	42
Cc1cc(OCCN2CCOCC2)nc2sc(C(=O)NC(C)(C)C)c(N)c12	62
Cc1cc(OCc2ccncc2)nc2sc(C(=O)NCc3cc(F)ccc3F)c(N)c12	64
COCCCNC(=O)c1sc2nc(OCCN3CCOCC3)cc(C)c2c1N	67
Cc1cc(OCCN2CCOCC2)nc2sc(C(=O)Nc3ccccc3)c(N)c12	51
Cc1cc(C)c2c(N)c(C(=O)NCc3cccc(F)c3F)sc2n1	18
Cc1cc(C)c2c(N)c(C(=O)NCc3ccccc3)sc2n1	26
COc1ccc(CNC(=O)c2sc3nc(OCCCN(C)C)cc(C)c3c2N)cc1	< 1 (inactive)
Cc1cc(OCc2ccccn2)nc2sc(C(=O)NCc3cc(F)ccc3F)c(N)c12	41
